Laboratory results published in patent US20200289514A1, “Novel Pyrazolo Pyrimidine Derivatives” (Novartis AG, priority 2015, published 2020).
Converted amounts (≈) assume the structure as drawn. Read-outs that look alike come from different tables or passages of the source.

How the values were obtained:
[1] = target: T1, C-domain of MALT1 (amino acids 329-824) (Homo sapiens, UniProt Q9UDY8); assay: MALT1 Biochemical Assay - Version 1 (fluorescence lifetime)
T1 sequence (Q9UDY8 329-824): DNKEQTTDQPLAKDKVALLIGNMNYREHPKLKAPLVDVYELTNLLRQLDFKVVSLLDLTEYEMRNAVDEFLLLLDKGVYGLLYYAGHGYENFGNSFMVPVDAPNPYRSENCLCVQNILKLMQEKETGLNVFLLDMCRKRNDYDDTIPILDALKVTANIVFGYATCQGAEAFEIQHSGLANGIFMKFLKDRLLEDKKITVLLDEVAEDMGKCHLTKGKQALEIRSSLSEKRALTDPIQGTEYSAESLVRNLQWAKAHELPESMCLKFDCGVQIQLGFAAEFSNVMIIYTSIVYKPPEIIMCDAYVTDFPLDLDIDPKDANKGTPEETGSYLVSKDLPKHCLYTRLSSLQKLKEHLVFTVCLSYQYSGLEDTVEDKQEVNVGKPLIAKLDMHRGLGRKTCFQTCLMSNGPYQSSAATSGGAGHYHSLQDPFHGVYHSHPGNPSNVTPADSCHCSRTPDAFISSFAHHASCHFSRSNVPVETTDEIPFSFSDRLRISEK
Method: The readout parameter is the increase of fluorescence lifetime over time, proportional to enzyme activity.
The assay employs a short peptide substrate labeled with the single fluorophore PT14 as a fluorescence lifetime probe sensitive to the cleavage state of the substrate (PT14: 6-(9-oxo-9H-acridin-10-yl)-hexanoate, AssayMetrics, UK). […] Test compounds were dissolved in 100% (v/v) DMSO or a mixture containing 90% (v/v) DMSO and 10% (v/v) H2O at a stock concentration of 100 mM. Serial dilutions of test compounds were prepared using either 100% (v/v) DMSO or a mixture containing 90% (v/v) DMSO and 10% (v/v) H2O.
where y is the %-inhibition at the inhibitor concentration, x. A1 is the lowest inhibition value, and A2 the maximum inhibition value. The exponent, p, is the Hill coefficient.

Human IL2 promoter = Human IL2 promoter reporter gene assay (RGA) in Jurkat cells; assay type: cell-based; conditions: Jurkat clone K22 290_H23, anti-CD28 mAb + PMA, 5.5 h
Method: Human IL2 Promoter Reporter Gene Assay (RGA) in Jurkat Cells
The transfected Jurkat clone K22 290_H23 was propagated in RPMI 1640 supplemented with 10% heat inactivated fetal calf serum, 50 μM 2-mercaptoethanol and 1 mg/ml Geneticin. The cell concentration should not exceed 1×10e6/ml during culturing. The cells should not exceed passage 30. Prior to the assay the cells were washed and prepared to the concentration of 2×10e6 cells/ml.
Compound dilutions were made as 2×-concentrated solutions then diluted ½ by addition to cells. Two hundred and fifty μl of compound dilution and 250 μl of cells were mixed together in wells of a 96-deep well plate. Cells/compounds premix were incubated 30 min at 37° C. and 5% CO2 directly in the deep well plate.
After pre-incubation of cells with compounds, cells were stimulated with anti-CD28 mAb (clone 15E8) at 3 μg/ml+PMA at 1 μg/ml. Both co-stimulants were diluted in culture medium at a 10×-concentrated solution. 10 μl of co-stimulants were pipetted into the white 96-well plates and 100 μl of cell/compound mix was immediately added in duplicates. The cells were stimulated for 5.5 h at 37° C. and 5% CO2.
After cell stimulation, 50 μl of BriteLitePlus reagent (Perkin Elmer) was added to each well and the bioluminescence was measured with a Wallac EnVision reader (Perkin Elmer).

[2] = Solubility in aqueous and biorelevant media; assay type: physicochemical

IC50 [1] | IC50 (Human IL2 promoter) | Structure (SMILES) | other results
7 nM | 28 nM | CNC(=O)c1ncc(NC(=O)Nc2cnc3cc(Cl)nn3c2[C@H](C)OC)cc1Cl [Example 34, (S)-3-chloro-5-(3-(2-chloro-7-(1-methoxyethyl)pyrazolo [1,5-a]pyrimidin-6-yl)ureido)-N-methylpicolinamide] | –
10 nM | 17 nM | CO[C@@H](C)c1c(NC(=O)Nc2cncc(Cl)c2)cnc2cc(Cl)nn12 [Example 35, (S)-1-(2-chloro-7-(1-methoxyethyl)pyrazolo [1,5-a]pyrimidin-6-yl)-3-(5-chloropyridin-3-yl)urea] | –
3 nM | 35 nM | COc1ncc(NC(=O)Nc2cnc3cc(Cl)nn3c2[C@@H](OC)[C@H](C)OC)cc1C#N [Example 36, 1-(2-chloro-7-((1R, 2S)-1,2-dimethoxypropyl)pyrazolo[1,5-a]pyrimidin-6-yl)-3-(5-cyano-6-methoxypyridin-3-yl)urea] | –
25 nM | 57 nM | COCC1(c2c(NC(=O)Nc3ccnc(C#N)c3)cnc3cc(Cl)nn23)CC1 [Example 37, 1-(2-chloro-7-(1-(methoxymethyl)cyclopropyl)pyrazolo [1,5-a]pyrimidin-6-yl)-3-(2-cyanopyridin-4-yl)urea] | –
24 nM | 86 nM | C[C@H](N)c1c(NC(=O)Nc2cnc(-n3nccn3)c(Cl)c2)cnc2cc(Cl)nn12 [Example 38, (S)-1-(7-(1-aminoethyl)-2-chloropyrazolo[1,5-a]pyrimidin-6-yl)-3-(5-chloro-6-(2H-1,2,3-triazol-2-yl)pyridin-3-yl)urea] | –
72 nM | 604 nM | Cc1cc2ncc(NC(=O)Nc3cncc(C#N)c3)c([C@H](C)O)n2n1 [Example 39, (S)-1-(5-cyanopyridin-3-yl)-3-(7-(1-hydroxyethyl)-2-methylpyrazolo [1,5-a]pyrimidin-6-yl)urea] | –
11 nM | 100 nM | C[C@H](O)c1c(NC(=O)Nc2ccnc(C(F)F)c2)cnc2cc(F)nn12 [Example 40, (S)-1-(2-(difluoromethyl)pyridin-4-yl)-3-(2-fluoro-7-(1-hydroxyethyl)pvrazolo[1,5-a]pyrimidin-6-yl)urea] | –
21 nM | 50 nM | CO[C@@H](C)c1c(NC(=O)Nc2cc(Cl)cnc2OC[C@H](C)N)cnc2cc(Cl)nn12 [Example 41, 1-(2-((S)-2-aminopropoxy)-5-chloropyridin-3-yl)-3-(2-chloro-7-((S)-1-methoxyethyl)pvrazolo[1,5-a]pyrimidin-6-yl)urea] | –
96 nM | 729 nM | CO[C@@H](C)c1c(NC(=O)Nc2cc[n+]([O-])c(C(F)F)c2)cnc2cc(F)nn12 [Example 42, (S)-2-(difluoromethyl)-4-(3-(2-fluoro-7-(1-methoxyethyl)pyrazolo[1,5-a]pyrimidin-6-yl)ureido)pyridine 1-oxide] | –

More lines, now with the values behind:

Structure (SMILES) | IC50 [1] | IC50 (Human IL2 promoter) | other results
CO[C@@H](C)c1c(NC(=O)Nc2cncc(C#N)c2)cnc2cc(C)nn12 [Example 1, (S)-1-(5-cyanopyridin-3-yl)-3-(7-(1-methoxyethyl)-2-methylpyrazolo [1,5-a]pyrimidin-6-yl)urea] | 92 nM | 133 nM | solubility ([2]; 19.12 mM Sodium Maleate Fasted state simulated intestinal fluid (FaSSIF) pH 6.5, [pH] 6.63, read-out: Solubility (mg/mL) [pH]): 0.018 mg/mL (≈ 51.2 µM); solubility ([2]; FaSSIF pH 6.5, [pH] 6.56, read-out: Solubility (mg/mL) [pH]): 0.022 mg/mL (≈ 62.6 µM); solubility ([2]; Fed state intestinal fluid FeSSIF pH 5.8, [pH] 5.85, read-out: Solubility (mg/mL) [pH]): 0.027 mg/mL (≈ 76.8 µM); solubility ([2]; Simulated Gastric Fluid (SGF) pH 2.0, [pH] 2.00, read-out: Solubility (mg/mL) [pH]): 0.024 mg/mL (≈ 68.3 µM); solubility ([2]; Water, [pH] 7.65, read-out: Solubility (mg/mL) [pH]): 0.019 mg/mL (≈ 54.1 µM); solubility ([2]; aqueous buffer, 100 mM Sodium Acetate pH 4.0, [pH] 4.04, read-out: Solubility (mg/mL) [pH]): 0.019 mg/mL (≈ 54.1 µM); solubility ([2]; simulated gastric fluid, HCl/KCl pH 1.0, [pH] 1.10, read-out: Solubility (mg/mL) [pH]): 0.049 mg/mL (≈ 139 µM)
CO[C@@H](C)c1c(NC(=O)Nc2ccnc(C(F)F)c2)cnc2cc(F)nn12 [Example 2, (S)-1-(2-(difluoromethyl)pyridin-4-yl)-3-(2-fluoro-7-(1-methoxyethyl)pyrazolo[1,5-a]pyrimidin-6-yl)urea] | 18 nM | 47 nM | solubility ([2]; Free form, Fasted state simulated intestinal fluid FaSSIF (V2) pH 6.5, [pH] 6.64, read-out: Solubility mg/mL [pH] Free form): 0.041 mg/mL (≈ 108 µM); solubility ([2]; Free form, Fed state intestinal fluid FeSSIF (V2) pH 5.8, [pH] 5.85, read-out: Solubility mg/mL [pH] Free form): 0.093 mg/mL (≈ 245 µM); solubility ([2]; Free form, Simulated Gastric Fluid (SGF) pH 2.0, [pH] 1.99, read-out: Solubility mg/mL [pH] Free form): 0.338 mg/mL (≈ 889 µM); solubility ([2]; Free form, Water, [pH] 7.76, read-out: Solubility mg/mL [pH] Free form): 0.029 mg/mL (≈ 76.2 µM); solubility ([2]; aqueous buffer, Free form, 19.12 mM Sodium Maleate (blank FaSSIF) pH 6.5, [pH] 6.61, read-out: Solubility mg/mL [pH] Free form): 0.026 mg/mL (≈ 68.4 µM); solubility ([2]; aqueous buffer, Free form, 100 mM Sodium Acetate pH 4.0, [pH] 3.99, read-out: Solubility mg/mL [pH] Free form): 0.032 mg/mL (≈ 84.1 µM); solubility ([2]; simulated gastric fluid, Free form, HCl/KCl pH 1.0, [pH] 1.12, read-out: Solubility mg/mL [pH] Free form): > 2 mg/mL
CO[C@@H](C)c1c(NC(=O)Nc2cnc(-n3nccn3)c(Cl)c2)cnc2cc(Cl)nn12 [Example 5, (S)-1-(5-chloro-6-(2H-1,2,3-triazol-2-yl)pyridin-3-yl)-3-(2-chloro-7-(1-methoxyethyl)pyrazolo[1,5-a]pyrimidin-6-yl)urea] | – | 19 nM | solubility ([2]; Fasted state simulated intestinal fluid (FaSSIF), [pH] 6.59, read-out: Solubility (mg/mL) [pH]): 0.0044 mg/mL (≈ 9.82 µM); solubility ([2]; Fed state intestinal fluid (FeSSIF), [pH] 6.87, read-out: Solubility (mg/mL) [pH]): 0.0082 mg/mL (≈ 18.3 µM); solubility ([2]; Simulated Gastric Fluid (SGF), [pH] 2.55, read-out: Solubility (mg/mL) [pH]): 0.0168 mg/mL (≈ 37.5 µM); solubility ([2]; Water, [pH] 7.39, read-out: Solubility (mg/mL) [pH]): 0.005 mg/mL (≈ 11.2 µM); solubility ([2]; medium of pH 1.2 (composition not named), simulated gastric fluid, pH 1.2, [pH] 1.17, read-out: Solubility (mg/mL) [pH]): 0.0038 mg/mL (≈ 8.48 µM); solubility ([2]; medium of pH 3.0 (composition not named), aqueous buffer, pH 3.0, [pH] 3.14, read-out: Solubility (mg/mL) [pH]): 0.0052 mg/mL (≈ 11.6 µM); solubility ([2]; medium of pH 4.7 (composition not named), aqueous buffer, pH 4.7, [pH] 4.71, read-out: Solubility (mg/mL) [pH]): 0.0048 mg/mL (≈ 10.7 µM); solubility ([2]; medium of pH 7.4 (composition not named), aqueous buffer, pH 7.4, [pH] 7.34, read-out: Solubility (mg/mL) [pH]): 0.004 mg/mL (≈ 8.92 µM); solubility ([2]; medium of pH 9.0 (composition not named), aqueous buffer, pH 9.0, [pH] 8.09, read-out: Solubility (mg/mL) [pH]): 0.0055 mg/mL (≈ 12.3 µM)
CO[C@@H](C)c1c(NC(=O)Nc2cncc(C(F)F)c2)cnc2cc(F)nn12 [Example 29, (S)-1-(5-(difluoro-methyl)pyridin-3-yl)-3-(2-fluoro-7-(1-methoxyethyl)-pyrazolo[1,5-a]pyrimidin-6-yl)urea] | 50 nM | 135 nM | –
CO[C@@H](C)c1c(NC(=O)Nc2cncc(C(F)(F)F)c2)cnc2cc(F)nn12 [Example 30, (S)-1-(2-fluoro-7-(1-methoxyethyl)pyrazolo [1,5-a]pyrimidin-6-yl)-3-(5-(trifluoro-methyl)pyridin-3-yl)urea] | 7 nM | 20 nM | –
CO[C@@H](C)c1c(NC(=O)Nc2cnc(C(=O)N(C)C)c(Cl)c2)cnc2cc(Cl)nn12 [Example 31, (S)-3-chloro-5-(3-(2-chloro-7-(1-methoxyethyl)pyrazolo [1,5-a]pyrimidin-6-yl)ureido)-N,N-dimethylpicolinamide] | 12 nM | 35 nM | –
CO[C@@H](C)c1c(NC(=O)Nc2cncc(Cl)c2)cnc2cc(F)nn12 [Example 32, (S)-1-(5-chloro-pyridin-3-yl)-3-(2-fluoro-7-(1-methoxyethyl)pyrazolo [1,5-a]pyrimidin-6-yl)urea] | 11 nM | 40 nM | –
CO[C@@H](C)c1c(NC(=O)Nc2cnc(C(=O)N3CCCC3)c(Cl)c2)cnc2cc(Cl)nn12 [Example 33, (S)-1-(5-chloro-6-(pyrrolidine-1-carbonyl)pyridin-3-yl)-3-(2-chloro-7-(1-methoxyethyl)pyrazolo [1,5-a]pyrimidin-6-yl)urea] | 11 nM | 44 nM | –
